The record followed here is ChEMBL document CHEMBL1156608, “Synthesis of stable and selective inhibitors of human galectins-1 and -3” (Bioorg Med Chem, 2008).

Bounds are passed on as bounds.

For test [1], the target named is T1, Galectin-3 (Homo sapiens, UniProt P17931). Put plainly: Binding affinity to galectin 3.
Test [2] concerns the target T2, Galectin-1 (Homo sapiens, UniProt P09382). Put plainly: Inhibition of recombinant galectin 1 in human O type red blood cells by hemagglutinination assay relative to galactose.
In test [3] the target is T1, Galectin-3. Briefly: Inhibition of recombinant galectin 3 in human O type red blood cells by hemagglutinination assay relative to galactose.
Test [4] deals with T2, Galectin-1. Put plainly: Inhibition of recombinant galectin 1 in human O type red blood cells by hemagglutinination assay relative to lactose.
Test [5] concerns the target T1, Galectin-3. Briefly: Inhibition of recombinant galectin 3 in human O type red blood cells by hemagglutinination assay relative to lactose.
The target of test [6] is T1, Galectin-3. Put plainly: Inhibition of galectin 3.
The target of test [7] is T2, Galectin-1. Put plainly: Binding affinity to galectin 1.

T2 sequence (P09382 whole entry): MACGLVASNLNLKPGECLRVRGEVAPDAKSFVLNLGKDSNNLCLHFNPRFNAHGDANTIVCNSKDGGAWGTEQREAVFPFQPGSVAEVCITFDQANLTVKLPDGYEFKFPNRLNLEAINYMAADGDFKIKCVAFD
T1 sequence (P17931 whole entry): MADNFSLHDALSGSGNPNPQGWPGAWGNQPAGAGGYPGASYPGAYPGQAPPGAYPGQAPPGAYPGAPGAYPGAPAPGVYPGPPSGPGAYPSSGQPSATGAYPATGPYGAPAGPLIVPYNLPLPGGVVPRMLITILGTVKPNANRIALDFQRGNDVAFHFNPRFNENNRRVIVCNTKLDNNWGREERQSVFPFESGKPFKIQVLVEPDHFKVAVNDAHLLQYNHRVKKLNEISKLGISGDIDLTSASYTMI

Usually Kd stands for the equilibrium constant for the complex coming apart. A higher Kd goes with lower affinity. Consider `CO[C@@H]1O[C@H](CO)[C@@H](O[C@@H]2O[C@H](CO)[C@H](O)[C@H](NC(=O)c3cc4ccccc4cc3C(=O)O)[C@H]2O)[C@H](O)[C@H]1NC(C)=O`, for which binding at Galectin-3 [1] was characterised by a dissociation constant (Kd) of 0.3 µM.

Take `OC[C@@H]1O[C@H](SCC#CC#CCS[C@@H]2O[C@H](CO)[C@H](O)[C@H](O)[C@H]2O)[C@@H](O)[C@@H](O)[C@@H]1O`: the Activity was 10 on Galectin-1 [2], under 10 at Galectin-3 [3] and 5 on Galectin-1 [4].

Regarding LACTOSE, ANHYDROUS, the Activity at Galectin-1 [2] and on Galectin-3 [3] was 1 each time.

Consider `CO[C@@H]1O[C@H](CO)[C@@H](O[C@@H]2O[C@H](CO)[C@H](O)[C@H](O)[C@H]2O)[C@H](O)[C@H]1NC(C)=O`, for which the Activity at Galectin-3 [1] was determined as 67 µM.

As for `OC[C@H]1O[C@@H](C/C=C/c2cccc(/C=C/C[C@@H]3O[C@H](CO)[C@H](O)[C@H](O)[C@H]3O)c2)[C@H](O)[C@@H](O)[C@H]1O`, the figures for the Activity on Galectin-1 [2], at Galectin-3 [3] and on Galectin-1 [4] were 10, under 10 and 5, respectively.

For `OC[C@@H]1O[C@H](n2cc(CS[C@@H]3O[C@H](CO)[C@@H](O[C@@H]4O[C@H](CO)[C@H](O)[C@H](O)[C@H]4O)[C@H](O)[C@H]3O)nn2)[C@@H](O)[C@H](O)[C@@H]1O`, the Activity on Galectin-1 [2] stood at 1.3; at Galectin-3 [3], 2.6; at Galectin-1 [4], 0.7; at Galectin-3 [5], 1.3.

On to `OC[C@@H]1O[C@H](O[C@@H]2[C@@H](O)[C@H](O)[C@@H](n3cc(CS[C@@H]4O[C@H](CO)[C@H](O)[C@H](O)[C@H]4O)nn3)O[C@H]2CO)[C@@H](O)[C@H](O)[C@@H]1O`, for which the Activity on Galectin-1 [2] turned out to be 2.6; on Galectin-3 [3], 1.3; at Galectin-1 [4] it was 1.3; at Galectin-3 [5] it was 0.7.

With `CC(=O)C[C@@H]1O[C@H](CO)[C@H](O)[C@H](O)[C@H]1O`, the values for the Activity at Galectin-1 [2] and at Galectin-3 [3] were under 10 and 10, respectively.

As for `C#CCS[C@@H]1O[C@H](CO)[C@@H](O[C@@H]2O[C@H](CO)[C@H](O)[C@H](O)[C@H]2O)[C@H](O)[C@H]1O`, the Activity at Galectin-1 [2] worked out at 1.3; on Galectin-3 [3], 2.6.

The term IC50 denotes the concentration needed to halve the response being measured. A higher IC50 goes with lower potency. In turn, `OC[C@@H]1O[C@H](O[C@@H]2[C@@H](O)[C@H](O)[C@@H](OCCCCCCO[C@@H]3O[C@H](CO)[C@@H](O[C@@H]4O[C@H](CO)[C@H](O)[C@H](O)[C@H]4O)[C@H](O)[C@H]3O)O[C@H]2CO)[C@@H](O)[C@H](O)[C@@H]1O` displayed an IC50 against Galectin-3 [6] of 163 µM.

On Galectin-3 [1], `CO[C@@H]1O[C@H](CO)[C@@H](O[C@@H]2O[C@H](CO)[C@H](O)[C@H](O)[C@H]2O)[C@H](O)[C@H]1O` came in with an Activity of 220 µM.

On to `O=C[C@H](O)[C@@H](O)[C@@H](O)[C@H](O)CO`, for which the Activity on Galectin-1 [2] and at Galectin-3 [3] was 1 each time.

`O=S(=O)(c1ccc2ccccc2c1)[C@@H]1O[C@H](CO)[C@@H](O[C@@H]2O[C@H](CO)[C@H](O)[C@H](O)[C@H]2O)[C@H](O)[C@H]1O`: the Kd on Galectin-3 [1] was 313 µM; on Galectin-1 [7], 40 µM.

`O=C(N[C@@H]1[C@H](O)[C@H](CO)O[C@H](S[C@@H]2O[C@H](CO)[C@H](O)[C@H](NC(=O)c3ccc([N+](=O)[O-])cc3)[C@H]2O)[C@H]1O)c1ccc([N+](=O)[O-])cc1` displayed a Kd on Galectin-3 [1] of 0.033 µM.

Take `OC[C@@H]1O[C@H](O[C@@H]2[C@@H](O)[C@H](O)[C@@H](SCC#CC#CCS[C@@H]3O[C@H](CO)[C@@H](O[C@@H]4O[C@H](CO)[C@H](O)[C@H](O)[C@H]4O)[C@H](O)[C@H]3O)O[C@H]2CO)[C@@H](O)[C@H](O)[C@@H]1O`: the Activity was 2.6 on Galectin-1 [2], 5 on Galectin-3 [3], 1.3 at Galectin-1 [4] and 2.5 on Galectin-3 [5].

For the compound `COC(=O)/C=C(\C[C@@H]1O[C@H](CO)[C@H](O)[C@H](O)[C@H]1O)c1ccccc1`, the Activity on Galectin-1 [2] is 160; at Galectin-3 [3] it was under 10.

On to `OC[C@H]1O[C@@H](C/C=C/c2ccccc2)[C@H](O)[C@@H](O)[C@H]1O`, for which the Activity on Galectin-1 [2] and at Galectin-3 [3] was under 10 in each case.

For the compound `C=C(C[C@@H]1O[C@H](CO)[C@H](O)[C@H](O)[C@H]1O)c1cccc([N+](=O)[O-])c1`, the Activity is 10 on Galectin-1 [2] and under 10 on Galectin-3 [3].

Consider `C=C(C[C@@H]1O[C@H](CO)[C@H](O)[C@H](O)[C@H]1O)c1ccc(OC)cc1`, for which the results for the Activity at Galectin-1 [2] and on Galectin-3 [3] were under 10 and 10, respectively.

Take `OC[C@@H]1O[C@H](SCC#Cc2ccc(C#CCS[C@@H]3O[C@H](CO)C(O)[C@H](O)[C@H]3O)cc2)[C@@H](O)[C@H](O)[C@@H]1O` (single isomer, unassigned): the Activity on Galectin-1 [2] was 20; at Galectin-3 [3], under 10; on Galectin-1 [4] it was 10.

`C#CCS[C@@H]1O[C@H](CO)[C@H](O)[C@H](O)[C@H]1O`: the results for the Activity on Galectin-1 [2] and at Galectin-3 [3] were under 10 and 20, respectively.

With `C/C=C/[C@@H]1O[C@H](CO)[C@H](O)[C@H](O)[C@H]1O`, the Activity at Galectin-1 [2] and at Galectin-3 [3] was under 10 in each case.

Take `COC(=O)Cn1cc(C[C@@H]2O[C@H](CO)[C@H](O)[C@H](O)[C@H]2O)nn1` [TRIAZOLYL GALACTOSIDE]: the Kd on Galectin-1 [7] was 5000 µM.

For the compound `COC(=O)/C=C/C[C@@H]1O[C@H](CO)[C@H](O)[C@H](O)[C@H]1O`, the Activity on Galectin-1 [2] and on Galectin-3 [3] was 10 in each case.

In the case of `OC[C@@H]1O[C@H](O[C@@H]2[C@@H](O)[C@H](O)[C@@H](n3cc(CS[C@@H]4O[C@H](CO)[C@@H](O[C@@H]5O[C@H](CO)[C@H](O)[C@H](O)[C@H]5O)[C@H](O)[C@H]4O)nn3)O[C@H]2CO)[C@@H](O)[C@H](O)[C@@H]1O`, the Activity on Galectin-1 [2] worked out at 2.6; at Galectin-3 [3], 5; at Galectin-1 [4], 1.3; at Galectin-3 [5], 2.5.

Regarding `OC[C@@H]1O[C@H](n2cc(CS[C@@H]3O[C@H](CO)[C@H](O)[C@H](O)[C@H]3O)nn2)[C@@H](O)[C@H](O)[C@@H]1O`, the Activity at Galectin-1 [2] is under 10; at Galectin-3 [3], 20; on Galectin-3 [5] it was 10.
